Measured values: patent publication US11098038B2, “Imidazole-based anticancer agents and derivatives thereof, and methods of making and using same” (The University of Toledo, priority 2017, dated 2021)

Key:
Format in all cases: cell-based
[1] = test system: HL-60(TB); assay: NCI 60 screen, HL-60(TB); conditions: Homo sapiens, Leukemia
Procedure: (§1) The compounds synthesized were tested at the National Cancer Institute (NCI) for anti-proliferative activity in the 60 human tumor cell line assay.

[2] = test system: SR; assay: NCI 60 screen, SR; conditions: Homo sapiens, Leukemia
Procedure: as §1

[3] = test system: A549/ATCC; assay: NCI 60 screen, A549/ATCC; conditions: Homo sapiens, Non-Small Cell Lung
Procedure: as §1

[4] = test system: EKVX; assay: NCI 60 screen, EKVX; conditions: Homo sapiens, Non-Small Cell Lung
Procedure: as §1

[5] = test system: HOP-92; assay: NCI 60 screen, HOP-92; conditions: Homo sapiens, Non-Small Cell Lung
Procedure: as §1

[6] = test system: NCI-H226; assay: NCI 60 screen, NCI-H226; conditions: Homo sapiens, Non-Small Cell Lung
Procedure: as §1

[7] = test system: NCI-460; assay: NCI 60 screen, NCI-460; conditions: Homo sapiens, Non-Small Cell Lung
Procedure: as §1

[8] = test system: NCI-H522; assay: NCI 60 screen, NCI-H522; conditions: Homo sapiens, Non-Small Cell Lung
Procedure: as §1

[9] = test system: HCT-116; assay: NCI 60 screen, HCT-116; conditions: Homo sapiens, Colon
Procedure: as §1

[10] = test system: HCT15; assay: NCI 60 screen, HCT15; conditions: Homo sapiens, HCT-15, Colon
Procedure: as §1

[11] = test system: HT29; assay: NCI 60 screen, HT29; conditions: Homo sapiens, HT-29, Colon
Procedure: as §1

[12] = test system: KM12; assay: NCI 60 screen, KM12; conditions: Homo sapiens, Colon
Procedure: as §1

[13] = test system: SW-620; assay: NCI 60 screen, SW-620; conditions: Homo sapiens, Colon
Procedure: as §1

[14] = test system: SF-295; assay: NCI 60 screen, SF-295; conditions: Homo sapiens, CNS
Procedure: as §1

[15] = test system: SF-539; assay: NCI 60 screen, SF-539; conditions: Homo sapiens, CNS
Procedure: as §1

[16] = test system: SNB-75; assay: NCI 60 screen, SNB-75; conditions: Homo sapiens, CNS
Procedure: as §1

[17] = test system: U251; assay: NCI 60 screen, U251; conditions: Homo sapiens, U-251, CNS
Procedure: as §1

[18] = test system: LOX IMVI; assay: NCI 60 screen, LOX IMVI; conditions: Homo sapiens, Melanoma
Procedure: as §1

[19] = test system: UACC-257; assay: NCI 60 screen, UACC-257; conditions: Homo sapiens, Melanoma
Procedure: as §1

[20] = test system: UACC-62; assay: NCI 60 screen, UACC-62; conditions: Homo sapiens, Melanoma
Procedure: as §1

[21] = test system: OVCAR-3; assay: NCI 60 screen, OVCAR-3; conditions: Homo sapiens, Ovarian
Procedure: as §1

[22] = test system: OVCAR-4; assay: NCI 60 screen, OVCAR-4; conditions: Homo sapiens, Ovarian
Procedure: as §1

[23] = test system: OVCAR-5; assay: NCI 60 screen, OVCAR-5; conditions: Homo sapiens, Ovarian
Procedure: as §1

[24] = test system: OVCAR-8; assay: NCI 60 screen, OVCAR-8; conditions: Homo sapiens, Ovarian
Procedure: as §1

[25] = test system: NCI/ADR-RES; assay: NCI 60 screen, NCI/ADR-RES; conditions: Homo sapiens, Ovarian
Procedure: as §1

[26] = test system: 786-0; assay: NCI 60 screen, 786-0; conditions: Homo sapiens, Renal
Procedure: as §1

[27] = test system: A498; assay: NCI 60 screen, A498; conditions: Homo sapiens, Renal
Procedure: as §1

[28] = test system: ACHN; assay: NCI 60 screen, ACHN; conditions: Homo sapiens, Renal
Procedure: as §1

[29] = test system: CAKI-1; assay: NCI 60 screen, CAKI-1; conditions: Homo sapiens, Renal
Procedure: as §1

[30] = test system: RXF393; assay: NCI 60 screen, RXF393; conditions: Homo sapiens, RXF 393, Renal
Procedure: as §1

[31] = test system: SN12C; assay: NCI 60 screen, SN12C; conditions: Homo sapiens, Renal
Procedure: as §1

[32] = test system: UO-31; assay: NCI 60 screen, UO-31; conditions: Homo sapiens, Renal
Procedure: as §1

[33] = test system: PC-3; assay: NCI 60 screen, PC-3; conditions: Homo sapiens, Prostatic
Procedure: as §1

[34] = test system: DU-145; assay: NCI 60 screen, DU-145; conditions: Homo sapiens, Prostatic
Procedure: as §1

[35] = test system: MDA-MB-231/ATCC; assay: NCI 60 screen, MDA-MB-231/ATCC; conditions: Homo sapiens, Breast
Procedure: as §1

[36] = test system: HS 578T; assay: NCI 60 screen, HS 578T; conditions: Homo sapiens, Breast
Procedure: as §1

[37] = test system: BT-549; assay: NCI 60 screen, BT-549; conditions: Homo sapiens, Breast
Procedure: as §1

[38] = test system: T-47D; assay: NCI 60 screen, T-47D; conditions: Homo sapiens, T47D, Breast
Procedure: as §1

[39] = test system: HeLa cells; assay: Mitotic arrest of HeLa cells observed under the microscope; conditions: 10 μM
Procedure: FIG. 6: Color images showing untreated HeLa cells used as a control. Mitotic duration: 60 minutes. Each frame was taken after 12 minute intervals. Frame 5 to frame 9 show cells' progression through mitosis.
FIG. 7: Color images showing HeLa cells treated with 10 μM of compound 25. Mitotic duration: 27.4 hr.
Although developed as HDAC inhibitors, the compounds herein may actually act by multiple mechanisms. […] Snap shots were taken at a 12 minute interval.
A cell that is rounded up in frame 2 enters mitosis (FIG. 7).

[40] = test system: chromosome alignment, centromeres, and spindle body; assay: Fluorescence microscopy of chromosome alignment, centromeres and spindle body; conditions: FIGS. 8A-8B
Description: FIGS. 8A-8B: Color images showing effects of compound 25 on chromosome alignment, centromeres, and spindle body. Microtubules that make up the mitotic spindle are detected with an antibody linked to a green fluorophore, which was detected with a fluorescence microscope. Centromeres were detected with a far red fluorophore (they are pseudocolored pink). DNA was detected with Hoechst DNA stain, which is blue.
In normal cells (FIG. 8A, upper two panels), chromosomes line up between the spindle poles at metaphase. In cells treated with compound 25 for several hours (FIG. 8A, lower two panels), cells still enter mitosis but centromeres are found all over the cell (not just in the middle between the poles of the spindle). […] However, when ZM is combined with compound 25, what was observed was a very dramatic disruption of spindle architecture. […] Without wishing to be bound by theory, it is believed that both Aurora B and the targets of compound 25 work in parallel to control tubulin function. When either one is inhibited alone, there is no effect since the other pathway compensates. When both are inhibited, the defect is detected.

With O=C(Cc1ccc(/C=C/C(=O)c2ncc[nH]2)cc1)Nc1ccc(Cl)cc1 [Compound 25, (E)-2-(-4 (3-(1H-imidazol-2-yl)-3-oxoprop-1-en-1-yl)phenyl)-N-(4-chlorophenyl)acetamide] as the compound, how does the GI50 [1] read?
Its GI50 is 3.8 µM.

What about the GI50 [2] of the same compound?
Its GI50 is 798 nM.

And the GI50 [3]?
The GI50 was 6.9 µM.

And the GI50 [4]?
The GI50 was 5.68 µM.

And the GI50 [5]?
Its GI50 is 5.74 µM.

And the GI50 [6]?
Its GI50 is 7.5 µM.

What about the GI50 [7] of the same compound?
The GI50 was 3.43 µM.

And the GI50 [8]?
Its GI50 is 2600 nM.

And the GI50 [9]?
The GI50 was 848 nM.

And the GI50 [10]?
Its GI50 is 879 nM.

And the GI50 [11]?
Its GI50 is 886 nM.

What about the GI50 [12] of the same compound?
The GI50 was 1300 nM.

What about the GI50 [13] of the same compound?
The GI50 was 1430 nM.

And the GI50 [14]?
Its GI50 is 3.33 µM.

What about the GI50 [15] of the same compound?
Its GI50 is 3.33 µM.

And the GI50 [16]?
The GI50 was 3.63 µM.

And the GI50 [17]?
Its GI50 is 1020 nM.

And the GI50 [18]?
The GI50 was 870 nM.

And the GI50 [19]?
The GI50 was 7.24 µM.

And the GI50 [20]?
Its GI50 is 3.94 µM.

What about the GI50 [21] of the same compound?
Its GI50 is 1140 nM.

And the GI50 [22]?
Its GI50 is 4.11 µM.

And the GI50 [23]?
The GI50 was 3.3 µM.

And the GI50 [24]?
The GI50 was 3.65 µM.

And the GI50 [25]?
The GI50 was 5.02 µM.

What about the GI50 [26] of the same compound?
The GI50 was 1130 nM.

What about the GI50 [27] of the same compound?
The GI50 was 5.48 µM.

What about the GI50 [28] of the same compound?
The GI50 was 4.04 µM.

What about the GI50 [29] of the same compound?
The GI50 was 4.88 µM.

And the GI50 [30]?
The GI50 was 3.05 µM.

And the GI50 [31]?
Its GI50 is 2400 nM.

What about the GI50 [32] of the same compound?
The GI50 was 1690 nM.

What about the GI50 [33] of the same compound?
The GI50 was 2390 nM.

And the GI50 [34]?
Its GI50 is 1700 nM.

What about the GI50 [35] of the same compound?
Its GI50 is 4.27 µM.

What about the GI50 [36] of the same compound?
Its GI50 is 18.8 µM.

And the GI50 [37]?
The GI50 was 3.46 µM.

And the GI50 [38]?
The GI50 was 3.24 µM.

What about the “Fate of arrested cells” value [39] of the same compound?
The value was “eventually underwent apoptosis”.

And the “Mitotic arrest (progress through cell division)” value ([39]; monitored for over 27.4 hours)?
The value was “did not proceed with cell division”.

And the Mitotic duration ([39]; untreated control 60 minutes)?
The Mitotic duration was 27.4 h.

And the “Spindle body / spindle architecture” value [40]?
The value was “the spindle body remained intact”.

And the “Chromosome alignment / centromere position” value ([40]; cells treated for several hours)?
Its value is “chromosomes were misaligned”.
